Columns and labels:
[1] = system: acne; experiment: case study of topical beta-sitosterol treatment of acne; type: in vivo; details: for reduction in acne: end of study, after four weeks of application; for mean reduction in acne: first week
From the text: This vehicle containing the beta-sitosterol is applied to the sites of the subcutaneous gland disorders on a twice daily basis (morning and evening).
FIG. 4 is a table indicating the results found in a case study.
The study used a cross section of the population having a distribution of sexes, ages, and areas being affected.
At the end of the study, after four weeks of application, the women found a fifty percent reduction with the men showing a forty-five percent reduction.

[2] = alcohols; cited from earlier work

CCC(CCC(C)C1CCC2C3CC=C4CC(O)CCC4(C)C3CCC12C)C(C)C (stereo not drawn) [beta-sitosterol, 17-(5-Ethyl-6-methylheptan-2-yl)-10-13-dimethyl-2,3,4,7,8,9,11,12,14,16,17-deodeccahydrom-1H-cyclopental(alpha)phenanthren-3-ol]
change of acne in the affected areas ([1]; all cases, start of use): immediate reduction in the acne
change of acne with continuous use ([1]; all of the subjects, continuous use): further reductions in acne
reduction in acne ([1]; men): forty-five
mean reduction in acne ([1]; men): 10%
reduction in acne ([1]; women): fifty
mean reduction in acne ([1]; women): 10%
solubility [2]: hydrophobic and soluble in alcohols

Reference: US20150004106A1, “ACNE treatment method” (priority 2013, published 2015)
